Target: Human eIF4E (aa 28-217) / biotin labeled 4G2 peptide (Homo sapiens (Human), UniProt P06730)
Assay: Human eIF4E/4G2 binding assay (TR-FRET)
Settings: Human eIF4E/4G2 TR-FRET binding assay; head says IC50, legend says EC50
Experimental: Example 5. Compound Testing in Human eIF4E/4G2 Binding Assay
Human eIF4E (aa 28-217) with a C-terminal His-tag was expressed in E. coli in inclusion bodies. The protein was solubilized with 8 M urea and purified under denaturing conditions using nickel-charged HisTrap HP columns (GE Healthcare). The purified protein was then refolded by diluting in 20 mM Hepes pH 7.0, 0.5 M NaCl, 1 mM DTT, 1 mM EDTA, 0.5 M arginine plus 6 M urea, and then dialyzing overnight into the same buffer without the urea. The protein was further dialyzed into 20 mM Hepes, pH 6.5, 50 mM NaCl, 1 mM EDTA, 1 mM DTT, and concentrated using Hitrap SP sepharose FF columns (GE Healthcare). The concentrated protein was dialyzed into 20 mM Hepes, pH 7.0, 0.5M NaCl, 5 mM DTT and 10% glycerol, and stored at −80° C. until use.
Test compounds (3.43 mM stock in DMSO) were diluted 2-fold in series in DMSO (10 concentration points). Compound solutions (1.2 μl/well) were added into black 384-well polypropylene microplates (Matrix, Thermal Scientific). Twenty-two microliters per well of Assay Buffer (50 mM NaPi, pH 6.5, 50 mM KCl, 1 mM DTT and 0.5 mg/ml gamma globulin) and eight microliters per well of 82.5 nM purified eIF4E in Assay Buffer were added. The samples were incubated at room temperature (20-23° C.) for 4 hours. Biotin labeled 4G2 peptide (Ac-Lys-Gln-Tyr-Asp-Arg-Glu-Phe-Leu-Leu-Asp-Phe-Gln-Phe-Met-Pro-Lys(Aha-Bio)-NH2, 1.75 μM stock in DMSO) was diluted to 0.14 μM in Assay Buffer (without DTT) and 5 μl/well was added. The samples were incubated at room temperature for 20 min. Five microliters per well of 6.4 nM Eu-streptavidin (Eu-SA, Perkin Elmer) and 80 nM Allophycocyanin (APC)-anti His antibody (Columbia Biosciences) in Assay Buffer (without DTT) were then added and the samples were incubated at room temperature for 20 min.
Assay signals were monitored by reading excitation at 340 nm and emission fluorescence at 615 nm and 665 nm on an Envision reader (Perkin Elmer). Normalized TR-FRET (time-resolved fluorescence resonance energy transfer) assay signal (Rn) was calculated by the formula: Rn=[(A−Ba−C×D)/(D−Bd)]×(Dc−Bd) Where A is the fluorescence intensity of the sample at 665 nm, • D is the fluorescence intensity of the sample at 615 nm, • Ba and Bd are plate backgrounds at 665 nm and 615 nm, respectively, • Dc is the fluorescence intensity of 0.78 nM Eu-SA in the assay buffer at 615 nm The cross-talk factor (C) is determined by the following formula: C=(Ac−Ba)/(Dc−Bd) Where Ac is the fluorescence intensity of 0.78 nM Eu-SA in the assay buffer at 665 nm.
IC50 values were calculated using xLFit program (IDBS). Table 2 below lists EC50 of some compounds, wherein A represents EC50≤1 uM; B represents 1 uM<EC50≤10 uM; and C represents EC50>10 uM.

Chain of Human eIF4E (aa 28-217) / biotin labeled 4G2 peptide (P06730 28-217): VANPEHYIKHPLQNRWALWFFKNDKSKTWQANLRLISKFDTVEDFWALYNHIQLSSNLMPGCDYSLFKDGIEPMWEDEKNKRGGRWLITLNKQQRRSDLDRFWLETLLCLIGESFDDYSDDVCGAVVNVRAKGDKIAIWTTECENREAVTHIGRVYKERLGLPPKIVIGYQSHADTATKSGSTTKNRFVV

SMILES	IC50
O=C(O)C(CNc1nc(-c2ccc(Cl)c(Cl)c2)c(C2CC2)s1)Cc1cccc(O)c1 (stereo not drawn) [I-13]	1000 to 10000 nM
CN(C)Cc1sc(N(CCC(=O)O)Cc2ccccc2)nc1-c1ccc(Cl)c(Cl)c1 [I-89, 3-(benzyl(4-(3,4-dichlorophenyl)-5-((dimethylamino)methyl)thiazol-2-yl)amino)propanoic acid]	> 10000 nM
CC(C)Cc1sc(NCC(NC(=O)OCc2ccccc2)C(=O)O)nc1-c1ccc(Cl)c(Cl)c1 (stereo not drawn) [I-138, 2-(benzyloxycarbonylamino)-3-(4-(3,4-dichlorophenyl)-5-isobutylthiazol-2-ylamino) propanoic acid]	≤ 1000 nM
CC(C)Cc1sc(N(CCC(=O)NCC(N)=O)Cc2ccccc2)nc1-c1ccc(Cl)c(Cl)c1 [I-193]	> 10000 nM
CC(C)Cc1sc(NCC(Cc2cccc(O)c2)C(=O)O)nc1-c1ccc(Cl)c(Cl)c1 (stereo not drawn) [I-21]	1000 to 10000 nM
COc1ccccc1CN(CCC(=O)O)c1nc(-c2ccc(Cl)c(Cl)c2)c(CC(C)C)s1 [I-49]	≤ 1000 nM
CC(C)c1sc(NCC(CCc2ccccc2)C(=O)O)nc1-c1ccc(Cl)c(Cl)c1 (stereo not drawn) [I-6]	≤ 1000 nM
CC(C)Cc1sc(NCC(Cc2ccc3[nH]ccc3c2)C(=O)O)nc1-c1ccc(Cl)c(Cl)c1 (stereo not drawn) [I-27]	≤ 1000 nM
CC(C)c1sc(NCC(Cc2cccc3[nH]ccc23)C(=O)O)nc1-c1ccc(Cl)c(Cl)c1 (stereo not drawn) [I-8]	1000 to 10000 nM
CC(C)Cc1sc(NCC(Cc2cnc(O)nc2)C(=O)O)nc1-c1ccc(Cl)c(Cl)c1 (stereo not drawn) [I-159, 3-(4-(3,4-dichlorophenyl)-5-isobutylthiazol-2-ylamino)-2-((2-hydroxypyrimidin-5-yl)methyl)propanoic acid]	1000 to 10000 nM
CC(C)c1sc(N(CCC(=O)O)Cc2ccccc2)nc1-c1ccc(F)c(Cl)c1 [I-78]	1000 to 10000 nM
CSCc1sc(N(CCC(=O)O)Cc2ccccc2)nc1-c1ccc(Cl)c(Cl)c1 [I-121]	1000 to 10000 nM
CC(C)Cc1sc(N(CCCN)Cc2ccccc2)nc1-c1ccc(Cl)c(Cl)c1 [I-191, N^1-benzyl-N^1-(4-(3,4-dichlorophenyl)-5-isobutylthiazol-2-yl)propane-1,3-diamine]	1000 to 10000 nM
CC(C)Cc1sc(NCC(Cc2cccc(C(=O)N(C)C)c2)C(=O)O)nc1-c1ccc(Cl)c(Cl)c1 (stereo not drawn) [I-168, 3-(4-(3,4-dichlorophenyl)-5-isobutylthiazol-2-ylamino)-2-(3-(dimethylcarbamoyl)benzyl)propanoic acid]	1000 to 10000 nM
CC(C)Cc1sc(NCC(C(=O)O)N(C)Cc2ccccc2)nc1-c1ccc(Cl)c(Cl)c1 (stereo not drawn) [I-114, 2-(benzyl(methyl)amino)-3-(4-(3,4-dichlorophenyl)-5-isobutylthiazol-2-ylamino)propanoic acid]	1000 to 10000 nM
O=C(O)C(CCc1ccccc1)CNc1nc(-c2ccc(Cl)c(Cl)c2)c(C2CC2)s1 (stereo not drawn) [I-15]	1000 to 10000 nM
CC(C)Cc1sc(N(CCc2ccccc2)CC(=O)O)nc1-c1ccc(Cl)c(Cl)c1 [I-60]	≤ 1000 nM
CC(C)c1sc(N(CCC(=O)O)Cc2ccccc2)nc1-c1ccc(F)c(F)c1 [I-77]	1000 to 10000 nM
CSc1ccc(-c2nc(N(CCC(=O)O)Cc3ccccc3)sc2CC(C)C)cc1 [I-127]	1000 to 10000 nM
CC(C)Cc1sc(NCC(NC(=O)OC(C)(C)C)C(=O)O)nc1-c1ccc(Cl)c(Cl)c1 (stereo not drawn) [I-137, 2-(tert-butoxycarbonylamino)-3-(4-(3,4-dichlorophenyl)-5-isobutylthiazol-2-ylamino) propanoic acid]	1000 to 10000 nM
CC(C)Cc1sc(NCC(CCCCN)C(=O)O)nc1-c1ccc(Cl)c(Cl)c1 (stereo not drawn) [I-125, 6-amino-2-((4-(3,4-dichlorophenyl)-5-isobutylthiazol-2-ylamino)methyl)hexanoic acid]	> 10000 nM
CC(C)Cc1sc(N(CCC(=O)O)Cc2ccccc2)nc1-c1cccc(Cl)c1 [I-79]	1000 to 10000 nM
CC(C)Cc1sc(N(CCC(=O)NCCCN)Cc2ccccc2)nc1-c1ccc(Cl)c(Cl)c1 [I-192]	1000 to 10000 nM
CC(C)c1sc(NCC(Cc2ccccc2)C(=O)O)nc1-c1ccc(Cl)c(Cl)c1 (stereo not drawn) [I-1, 2-benzyl-3-(4-(3,4-dichlorophenyl)-5-isopropylthiazol-2-ylamino)propanoic acid]	≤ 1000 nM
CC(C)Cc1sc(NCC(Cc2cccc(S(C)(=O)=O)c2)C(=O)O)nc1-c1ccc(Cl)c(Cl)c1 (stereo not drawn) [I-172]	1000 to 10000 nM

Results, then the compound that gave them:

IC50	SMILES
≤ 1000 nM	COc1cc(-c2cnc(Nc3nc(-c4ccc(Cl)c(Cl)c4)c(C(C)C)s3)c(C(=O)O)c2)ccn1 [I-268]
≤ 1000 nM	CC(C)Cc1sc(Nc2cc(C(=O)O)cc(-c3ccccc3)c2)nc1-c1ccc(Cl)c(Cl)c1 [I-215, 5-(4-(3,4-dichlorophenyl)-5-isobutylthiazol-2-ylamino)biphenyl-3-carboxylic acid]
≤ 1000 nM	CC(C)c1sc(Nc2cc(-c3ccccc3)sc2C(=O)O)nc1-c1ccc(Cl)c(C(F)(F)F)c1 [I-279, 3-(4-(4-chloro-3-(trifluoromethyl)phenyl)-5-isopropylthiazol-2-ylamino)-5-phenylthiophene-2-carboxylic acid]
1000 to 10000 nM	CC(C)Cc1sc(N(CCNC(=N)N)Cc2ccccc2)nc1-c1ccc(Cl)c(Cl)c1 [I-232, 2-(2-(benzyl(4-(3,4-dichlorophenyl)-5-isobutylthiazol-2-yl)amino)ethyl)guanidine]
1000 to 10000 nM	CC(C)Cc1sc(-c2ccc(C(F)(F)F)c(C(=O)O)c2)nc1-c1ccc(Cl)c(Cl)c1 [I-227]
≤ 1000 nM	COc1ccnc(Nc2nc(-c3ccc(Cl)c(Cl)c3)c(CC(C)C)s2)c1C(=O)O [I-243]
> 10000 nM	CC(C)Cc1sc(N(CCC(=O)O)Cc2cccc(C(=O)NCCN)c2)nc1-c1ccc(Cl)c(Cl)c1 [I-205, 3-((3-(2-aminoethylcarbamoyl)benzyl)(4-(3,4-dichlorophenyl)-5-isobutylthiazol-2-yl)amino)propanoic acid]
≤ 1000 nM	CC(C)Cc1sc(N2CCN(C(=O)c3cccs3)C(C(=O)O)C2)nc1-c1ccc(Cl)c(Cl)c1 (stereo not drawn) [I-248]
≤ 1000 nM	O=C(O)c1sc(C2CCCC2)cc1Nc1nc(Cc2ccccc2)c(-c2ccccc2)s1 [I-310]
≤ 1000 nM	CC(C)Cc1sc(Nc2ncc(C(F)(F)F)cc2C(=O)O)nc1-c1ccc2ccccc2c1 [I-321]
1000 to 10000 nM	CC(C)c1sc(Nc2ccsc2C(=O)NCCN)nc1-c1ccc(Cl)c(Cl)c1 [I-277]
1000 to 10000 nM	CC(C)Cc1sc(-c2cccc(C(=O)O)n2)nc1-c1ccc(Cl)c(Cl)c1 [I-228, 6-(4-(3,4-dichlorophenyl)-5-isobutylthiazol-2-yl)picolinic acid]
> 10000 nM	CC(C)Cc1sc(NCc2cccnc2O)nc1-c1ccc(Cl)c(Cl)c1 [I-202]
≤ 1000 nM	CC(C)Cc1sc(Nc2cccc(C(F)(F)F)c2C(=O)O)nc1-c1ccc(Cl)c(Cl)c1 [I-236]
> 10000 nM	CC(C)Cc1sc(Nc2cccc(C(=O)NCCN)c2)nc1-c1ccc(Cl)c(Cl)c1 [I-218, N-(2-aminoethyl)-3-(4-(3,4-dichlorophenyl)-5-isobutylthiazol-2-ylamino)benzamide]
≤ 1000 nM	CC(C)Cc1sc(Nc2ccsc2C(=O)O)nc1-c1ccc(Cl)c(Cl)c1 [I-256]
≤ 1000 nM	Cc1c(-c2ccccc2)sc(C(=O)O)c1Nc1nc(-c2ccc(Cl)c(Cl)c2)c(CC(C)C)s1 [I-275]
≤ 1000 nM	CC(C)Cc1sc(Nc2cc(F)cc(C(=O)O)c2)nc1-c1ccc(Cl)c(Cl)c1 [I-212]
≤ 1000 nM	COc1ccc(-c2nc(Nc3ncc(-c4cccs4)cc3C(=O)O)sc2C(C)C)cc1Cl [I-324]
> 10000 nM	CC(C)Cc1sc(N(CCC(=O)NS(=O)(=O)CCN)Cc2ccccc2)nc1-c1ccc(Cl)c(Cl)c1 [I-198]

Source: patent US11753403B2, “EIF4E inhibitors and uses thereof” (PIC Therapeutics, Inc., priority 2020, dated 2023)
